Measured values taken from patent publication US20160222014A1, “COMPOUNDS FOR REGULATING FAK AND/OR SRC PATHWAYS” (ASANA BIOSCIENCES, LLC, priority 2013, published 2016).

Assays:
JAK2 = JAK2 (Homo sapiens, UniProt O60674); assay: JAK2 biochemical potency; settings: read-out: JAK2 HTRF IC50
Phospho Src(Y416) = molecular target: T1, Phospho Src(Y416) (Homo sapiens, UniProt P12931); assay: Phospho Src(Y416) Sandwich ELISA; type: cell-based; settings: Panc1; read-out: pSrc EC50 (μM) Panc1
T1 construct: endogenous in cells; host or cells: Panc1
Experimental: E. Phospho Src(Y416) Sandwich ELISA
Phospho Src(Y416) Sandwich ELISA kit was obtained from Cell Signaling Tech.
(i) Reagent Preparation • 1. All microwell strips were brought to rt before use. • 2. 1× Wash Buffer was prepared by diluting 20× Wash Buffer (included in each PathScan® Sandwich ELISA Kit) in MilliQ® water or equivalently purified water. • 3. 1× Cell Lysis Buffer from CST #9803: 20 mM Tris (pH 7.5), 150 mM NaCl, 1 mM ethylene diamine tetraacetate (EDTA), 1 mM ethylene glycol-bis(2-aminoethyl)-N,N,N′,N′-tetraacetic acid (EGTA), 1% Triton™ X-100, 2.5 mM sodium pyrophosphate, 1 mM b-glycerophosphate, 1 mM Na3VO4, 1 μg/mL leupeptin. This buffer was stored at 4° C. for short-term use (1-2 weeks).
(ii) Preparing Cell Lysates • 1. The media was aspirated. The cells were treated by adding fresh media containing inhibitor for 1 h. The compound of Example 214 was used as reference. • 2. The cells were harvested under non-denaturing conditions by removing media and rinsing cells once with ice-cold PBS. • 3. PBS was removed, 0.5 mL ice-cold 1× Cell Lysis Buffer plus 1 mM phenylmethylsulfonylfluoride (PMSF) was added to each plate (10 cm in diameter) and the plate incubated on ice for 5 min. • 4. The cells were scraped off of the plate, transferred to an appropriate tube, and kept on ice. • 5. The lysates were sonicated on ice. • 6. Microcentrifugation was performed for 10 min at 4° C. and the supernatant transferred to a new tube. The supernatant was the cell lysate and was stored at −80° C. in single-use aliquots.
(iii) Test Procedure • 1. After the microwell strips reached rt, the required number of microwells were broken off. The microwells were placed in the strip holder. Unused microwells were resealed and stored at 4° C. immediately. • 2. 100 μL of Sample Diluent (supplied in each PathScan® Sandwich ELISA Kit, blue color) was added to a micro centrifuge tube. 100 μL of cell lysate was transferred into the tube and vortexed for a few seconds. […] Individual data sheets for each kit provided information regarding an appropriate dilution factor for lysates and kit assay results. However, dilution factors were titrated when specific cell lysates are used. • 3. 100 μL of each diluted cell lysate were added to the appropriate well. It was then sealed with tape and pressed firmly onto top of microwells. The plate was incubated for 2 h at 37° C. Alternatively, the plate was incubated overnight at 4° C., which gave the best detection of target protein. • 4. The tape was gently removed and the wells washed: • a. The plate contents were discarded into a receptacle. • b. Each well was washed 4 times with 1× Wash Buffer, 200 μL. • c. For each wash, plates were struck on fresh towels hard enough to remove the residual solution in each well, but wells were not allowed to completely dry at any time. • d. The underside of all wells was cleaned with a lint-free tissue. • 5. 100 μL of Detection Antibody (green color) was added to each well, sealed with tape and the plate incubated for 1 h at 37° C. • 6. The wash procedure was repeated as in Step 4. • 7. 100 μL of HRP-linked secondary antibody (red color) was added to each well, sealed with tape and the plate incubated plate for 30 min at 37° C. • 8. The wash procedure was repeated as in Step 4. • 9. 100 μL of TMB Substrate was added to each well, sealed with tape and the plate incubated for 10 min at 37° C. or 30 min at 25° C. • 10. 100 μL of STOP Solution was added to each well and shaken gently for a few seconds. Initial color of positive reaction was blue, which changed to yellow upon addition of STOP Solution. • 11. The results were read. • a. Visual Determination—read within 30 min after adding STOP Solution. • b. Spectrophotometric Determination—the underside of wells were wiped with a lint-free tissue and absorbance read at 450 nm within 30 min after adding STOP Solution.

AURKB (Aurora B) enzyme = molecular target: T2, AURKB (Aurora B) enzyme (Homo sapiens, UniProt Q96GD4); assay: Aurora B HTRF assay; type: biochemical; settings: read-out: AuroraB IC50
T2 construct: purchased Invitrogen PVR 130
Method in brief: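 Enzyme (5 nM final) and ULight-labelled PLK Ser137 peptide (50 nM) reacted 1 h at room temperature; a 30 μM final component was also present. Detection used EDTA-containing buffer with europium anti-phospho-PLK(Ser137) antibody at 2 nM, 1 h, then time-resolved FRET readout.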

[1] = molecular target: T3, FAK phosphorylated at Y397 in HEK-FAK cell line overexpressing human FL FAK protein (Homo sapiens, UniProt Q05397); assay: Cell based assay, Phospho-FAK ELISA; settings: HEK stb; read-out: pFAK EC50 (μM) HEK stb
T3 construct: expressed in transfected cells
Method in brief: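 Stable HEK293 line overexpressing full-length human FAK, kept under 0.8 mg/mL Zeocin. In lysates, FAK Y397 autophosphorylation was measured by sandwich ELISA: total-FAK capture antibody, biotinylated pY397-specific detection antibody, streptavidin-HRP with TMB substrate.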

recombinant human FAK1 = molecular target: T4, recombinant human FAK1 (Homo sapiens, UniProt Q05397); assay: FAK1 HTRF assay; type: biochemical
T4 construct: fused on or other part: N-terminal 6xHis tag
Method in brief: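 IC50 values derive from HTRF % inhibition (ratio 665/620 nm, Eu–anti-phosphotyrosine 0.1 nM, SA-APC 12 nM). The kinase step ran 45 min at room temperature, pairing 10 nM His-FAK1(692–end) from baculovirus with 0.5 μM gastrin Tyr87 biotin-peptide and a reagent at 10 μM final, pH 7.4. Compound dilutions began at 10 μM.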

[2] = test system: panel of pancreatic cancer cell lines; settings: read-out: anti-proliferative IC50; cited from earlier work
[3] = test system: MIA PaCa-2 human pancreatic tumor; settings: oral administration, cited from earlier work
[4] = test system: FAK autophosphorylation at Tyrosine397 and Akt phosphorylation at Serine473; settings: 4T1 breast carcinoma; cited from earlier work
[5] = test system: 4T1 orthotopic breast carcinoma; settings: cited from earlier work
[6] = test system: prostate and pancreatic cancer xenograft; settings: prostate and pancreatic cancer xenograft models; cited from earlier work
cell migration = settings: concomitant with inhibition of focal adhesion turnover; cited from earlier work
[7] = test system: cell proliferation and apoptosis; settings: cited from earlier work
[8] = test system: tumor FAK Tyr-397 phosphorylation; settings: 100 mg/kg intraperitoneal, i.p.; cited from earlier work
[9] = 100 mg/kg intraperitoneal, i.p.; cited from earlier work
[10] = test system: CSC population in 2 human breast cancer cell lines; settings: 2 human breast cancer cell lines in vitro and in xenografts; cited from earlier work

Sequence of JAK2 (O60674 whole entry, species assumed): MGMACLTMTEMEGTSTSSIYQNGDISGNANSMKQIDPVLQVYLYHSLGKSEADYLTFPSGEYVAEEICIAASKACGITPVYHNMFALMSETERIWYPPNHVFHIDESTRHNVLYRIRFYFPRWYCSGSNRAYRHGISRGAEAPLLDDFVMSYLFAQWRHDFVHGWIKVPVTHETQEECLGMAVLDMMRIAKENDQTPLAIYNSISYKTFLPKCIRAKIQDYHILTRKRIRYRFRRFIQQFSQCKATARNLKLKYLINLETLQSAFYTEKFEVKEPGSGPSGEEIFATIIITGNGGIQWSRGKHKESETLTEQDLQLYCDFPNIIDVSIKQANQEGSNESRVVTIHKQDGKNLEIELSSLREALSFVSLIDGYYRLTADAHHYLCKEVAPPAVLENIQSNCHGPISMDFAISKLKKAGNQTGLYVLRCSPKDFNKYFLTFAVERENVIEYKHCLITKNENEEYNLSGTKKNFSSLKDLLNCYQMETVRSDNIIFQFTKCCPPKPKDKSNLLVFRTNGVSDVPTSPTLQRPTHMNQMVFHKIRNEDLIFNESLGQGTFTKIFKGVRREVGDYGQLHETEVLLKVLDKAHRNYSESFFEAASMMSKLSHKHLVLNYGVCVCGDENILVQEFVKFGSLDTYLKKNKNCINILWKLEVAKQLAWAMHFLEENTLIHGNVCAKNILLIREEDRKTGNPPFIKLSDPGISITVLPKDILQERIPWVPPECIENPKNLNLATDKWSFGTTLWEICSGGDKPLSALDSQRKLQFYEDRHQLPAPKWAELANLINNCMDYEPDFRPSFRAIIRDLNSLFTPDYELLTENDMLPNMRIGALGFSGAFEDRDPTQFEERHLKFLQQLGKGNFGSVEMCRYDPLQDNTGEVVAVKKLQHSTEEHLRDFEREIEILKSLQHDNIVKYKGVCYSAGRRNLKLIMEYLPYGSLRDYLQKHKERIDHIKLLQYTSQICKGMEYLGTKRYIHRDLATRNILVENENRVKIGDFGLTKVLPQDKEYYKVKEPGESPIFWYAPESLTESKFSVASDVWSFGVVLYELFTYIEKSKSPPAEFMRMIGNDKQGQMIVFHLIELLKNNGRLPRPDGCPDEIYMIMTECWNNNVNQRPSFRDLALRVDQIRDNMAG
T4 sequence (Q05397 422-680 limits assumed): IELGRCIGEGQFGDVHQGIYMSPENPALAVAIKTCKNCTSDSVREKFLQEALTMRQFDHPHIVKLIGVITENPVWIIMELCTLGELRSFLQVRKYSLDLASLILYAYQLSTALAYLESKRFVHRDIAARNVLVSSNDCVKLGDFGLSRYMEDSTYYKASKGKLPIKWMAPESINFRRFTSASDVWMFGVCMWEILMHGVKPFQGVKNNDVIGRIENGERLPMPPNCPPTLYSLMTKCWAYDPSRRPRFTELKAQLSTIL
T2 sequence (Q96GD4 whole entry): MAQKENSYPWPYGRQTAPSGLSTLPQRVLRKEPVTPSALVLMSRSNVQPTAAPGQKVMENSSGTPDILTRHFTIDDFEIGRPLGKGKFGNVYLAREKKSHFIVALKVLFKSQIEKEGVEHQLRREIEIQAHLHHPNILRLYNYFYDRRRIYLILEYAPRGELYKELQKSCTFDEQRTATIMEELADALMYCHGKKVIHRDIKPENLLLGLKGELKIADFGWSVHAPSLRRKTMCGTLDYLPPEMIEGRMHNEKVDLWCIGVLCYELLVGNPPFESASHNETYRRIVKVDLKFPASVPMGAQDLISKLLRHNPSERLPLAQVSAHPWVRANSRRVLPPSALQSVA
T1 sequence (P12931 whole entry): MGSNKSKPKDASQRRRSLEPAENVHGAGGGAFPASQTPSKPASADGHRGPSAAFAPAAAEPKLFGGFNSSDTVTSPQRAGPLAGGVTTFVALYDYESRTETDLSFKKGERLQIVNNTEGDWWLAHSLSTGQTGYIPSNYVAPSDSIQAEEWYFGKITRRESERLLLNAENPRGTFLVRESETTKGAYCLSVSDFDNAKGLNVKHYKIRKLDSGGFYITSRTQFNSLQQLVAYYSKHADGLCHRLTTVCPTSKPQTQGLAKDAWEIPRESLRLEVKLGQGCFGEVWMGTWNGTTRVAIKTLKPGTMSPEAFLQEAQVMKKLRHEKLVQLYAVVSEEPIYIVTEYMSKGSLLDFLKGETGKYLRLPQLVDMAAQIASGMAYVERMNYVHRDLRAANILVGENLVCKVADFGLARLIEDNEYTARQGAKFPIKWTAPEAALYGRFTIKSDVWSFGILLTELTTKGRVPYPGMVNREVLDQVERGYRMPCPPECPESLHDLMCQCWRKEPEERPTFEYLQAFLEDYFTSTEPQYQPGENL
T3 sequence (Q05397 whole entry): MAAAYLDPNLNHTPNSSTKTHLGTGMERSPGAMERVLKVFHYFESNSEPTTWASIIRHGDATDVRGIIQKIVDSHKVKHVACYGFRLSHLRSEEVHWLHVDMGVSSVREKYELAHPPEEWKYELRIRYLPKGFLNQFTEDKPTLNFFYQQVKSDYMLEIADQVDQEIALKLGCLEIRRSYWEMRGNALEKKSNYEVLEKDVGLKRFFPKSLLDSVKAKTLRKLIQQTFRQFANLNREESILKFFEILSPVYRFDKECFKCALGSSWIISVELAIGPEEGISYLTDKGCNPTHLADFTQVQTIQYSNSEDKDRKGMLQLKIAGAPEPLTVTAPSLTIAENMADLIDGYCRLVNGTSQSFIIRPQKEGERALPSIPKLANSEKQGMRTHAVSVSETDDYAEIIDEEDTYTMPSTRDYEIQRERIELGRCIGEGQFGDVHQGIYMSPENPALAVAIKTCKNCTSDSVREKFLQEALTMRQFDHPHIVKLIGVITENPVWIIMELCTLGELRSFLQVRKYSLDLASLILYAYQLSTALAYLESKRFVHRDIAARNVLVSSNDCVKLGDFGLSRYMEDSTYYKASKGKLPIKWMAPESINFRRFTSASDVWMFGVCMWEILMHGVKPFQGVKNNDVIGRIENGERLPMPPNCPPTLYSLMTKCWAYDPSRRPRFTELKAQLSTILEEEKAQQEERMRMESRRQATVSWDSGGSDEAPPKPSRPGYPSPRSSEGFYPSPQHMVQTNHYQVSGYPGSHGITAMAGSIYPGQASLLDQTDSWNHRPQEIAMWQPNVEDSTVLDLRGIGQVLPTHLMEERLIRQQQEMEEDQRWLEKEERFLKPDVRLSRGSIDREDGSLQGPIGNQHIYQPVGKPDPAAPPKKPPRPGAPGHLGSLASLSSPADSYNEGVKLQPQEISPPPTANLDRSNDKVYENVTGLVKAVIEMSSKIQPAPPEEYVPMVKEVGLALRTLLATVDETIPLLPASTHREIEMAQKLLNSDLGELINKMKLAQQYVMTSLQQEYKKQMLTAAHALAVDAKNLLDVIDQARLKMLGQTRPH

Structure (SMILES) | IC50 (JAK2) [nM] | EC50 (Phospho Src(Y416)) [µM] | IC50 (AURKB (Aurora B) enzyme) [nM] | further results
O=C1CCc2cc(Nc3ncc4ccn(Cc5ccccc5OC(F)F)c4n3)ccc2N1 [Example 18] | < 20 | > 1 | < 20 | 
O=C1CCc2cc(Nc3ncc4ccn(S(=O)(=O)c5ccccc5OC(F)(F)F)c4n3)ccc2N1 [Example 43] | < 20 | > 1 |  | 
CN(c1ncccc1Cn1ccc2cnc(Nc3ccc(N4CCOCC4)cc3)nc21)S(C)(=O)=O [Example 76] | < 20 | > 1 |  | 
CN(c1ncccc1Cn1ccc2cnc(Nc3cccc(NC(=O)C(C)(C)O)c3)nc21)S(C)(=O)=O [Example 79] | < 20 | > 1 |  | 
CN(c1ncccc1Cn1ccc2cnc(Nc3cccc(N4CCNCC4)c3)nc21)S(C)(=O)=O [Example 176] | < 20 | > 1 | < 20 | 
N#Cc1ccccc1S(=O)(=O)n1ncc2cnc(Nc3ccc(N4CCNCC4)cc3)cc21 [Example 191] | > 1000 | > 1 |  | EC50 [1]: > 1 µM
CNC(=O)c1ccccc1Nc1nc(Nc2ccc(N3CCOCC3)cc2OC)ncc1Cl [NVP-TAE226] |  |  |  | IC50 [2]: 760 nM; body weight loss ([3]; MIA PaCa-2 model): no body weight loss; MIA PaCa-2 human pancreatic tumor growth [3]: efficiently inhibited; Inhibition of FAK autophosphorylation at Tyrosine397 and Akt phosphorylation at Serine473 [4]: observed in a dose-dependent manner; 4T1 murine breast tumor growth and metastasis to the lung ([5]; oral administration, dose-dependent): inhibited
CN(c1ncccc1CNc1nc(Nc2ccc3c(c2)CC(=O)N3)ncc1C(F)(F)F)S(C)(=O)=O [PF-562,271, N-methyl-N-(3-(((2-((2-oxoindolin-5-yl)amino)-5-(trifluoromethyl)pyrimidin-4-yl)amino)methyl)pyridin-2-yl)methanesulfonamide] |  |  |  | antitumor efficacy [6]: good antitumor efficacy and tumor regression; toxicity [6]: no observed toxicity
CS(=O)(=O)c1cccc(CNc2nc(Nc3ccc4c(c3)CCC(=O)N4)ncc2C(F)(F)F)c1 [PF-573,228] |  |  |  | chemotactic and haptotactic migration (cell migration): inhibited; effect on cell proliferation and apoptosis [7]: minimal to no effect
CNC(=O)c1ccccc1Nc1cc(Nc2ccc(N3CCOCC3)cc2OC)ncc1C(F)(F)F [PND-1186] |  |  |  | duration of inhibition of tumor FAK Tyr-397 phosphorylation [8]: 12 h; pharmacokinetics (PK) [9]: promising; syngeneic murine 4T1 orthotopic breast carcinoma tumor growth and spontaneous metastasis to lungs ([5]; mouse, in vivo): significantly inhibited
CC(C)Cc1ccc([C@@H](C)C(=O)NS(C)(=O)=O)cc1 [Repertaxin] |  |  |  | CSC population [10]: selectively depleted

Second part, led by results:

IC50 (JAK2) [nM] | EC50 (Phospho Src(Y416)) [µM] | IC50 (AURKB (Aurora B) enzyme) [nM] | Structure (SMILES) | further results
< 20 | < 0.02 |  | CN(c1ncccc1Cn1ccc2cnc(Nc3ccc(N4CCNCC4)c(F)c3)nc21)S(C)(=O)=O [Example 195] | EC50 [1]: > 1 µM
< 20 | > 1 | < 20 | CC(=O)Nc1ccc(Nc2ncc3ccn(S(=O)(=O)c4cccc5cccnc45)c3n2)cc1 [Example 307] | IC50 (recombinant human FAK1): < 20 nM
< 20 | > 1 | < 20 | O=S(=O)(c1cccc2cccnc12)n1ccc2cnc(Nc3ccc(N4CCC(O)CC4)cc3)nc21 [Example 310] | IC50 (recombinant human FAK1): < 20 nM
< 20 | > 1 |  | CN(c1ccccc1Cn1ccc2cnc(Nc3ccc(C(=O)NCC(C)(C)O)c(F)c3)nc21)S(C)(=O)=O [Example 508] | EC50 [1]: > 1 µM
< 20 | > 1 | < 20 | CN(c1ccccc1Cn1ccc2cnc(Nc3ccc4c(c3)CC(=O)N4)nc21)S(C)(=O)=O [Example 513] | IC50 (recombinant human FAK1): < 20 nM
